# Measured values published in patent US20190298664A1, “METHOD AND KIT FOR MYOCARDIAL REPERFUSION, AND METHOD FOR ATTENUATING OR REDUCING MYOCARDIAL REPERFUSION INJURY” (Academia Sinica, priority 2018, published 2019).
# Like-named read-outs stand apart in the source and are kept apart here.
# Legend:
# PTP-PEST = biological target: T1, PTP-PEST (Homo sapiens, UniProt Q05209); experiment: Thermal stability of PTP-PEST by differential scanning fluorimetry and differential scanning calorimetry; details: in the presence of Auranofin; apo form shows a single unfolding event
# T1 construct: PTP PEST Catalytic Domain construct (Amino Acid:1-300) with 6 His tag at N-terminal; 6 His (N, cleaved yes); made in house; host or cells: Sf9 insect cells (Sf9-VECL-01), Bac-to-Bac baculovirus system
# T1 sequence (Q05209 1-300): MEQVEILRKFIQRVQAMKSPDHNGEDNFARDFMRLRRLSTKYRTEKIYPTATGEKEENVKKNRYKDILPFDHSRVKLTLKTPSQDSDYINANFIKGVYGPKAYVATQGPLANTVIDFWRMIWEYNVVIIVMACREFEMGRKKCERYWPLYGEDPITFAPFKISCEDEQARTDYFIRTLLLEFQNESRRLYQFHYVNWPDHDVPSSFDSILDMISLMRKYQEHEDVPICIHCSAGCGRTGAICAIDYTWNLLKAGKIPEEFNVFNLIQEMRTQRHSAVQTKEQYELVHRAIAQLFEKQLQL
# [1] = biological target: T2, PTP-PEST catalytic domain (Homo sapiens, UniProt Q05209); experiment: IC50 kinetic assay: phosphatase activity of purified PTP-PEST catalytic domain with phospho-Paxillin peptide substrate; type: biochemical
# T2 construct: PTP PEST Catalytic Domain construct (Amino Acid:1-300) with 6 His tag at N-terminal; 6 His (N, cleaved yes); made in house; host or cells: Sf9 insect cells (Sf9-VECL-01), Bac-to-Bac baculovirus system
# T2 sequence (Q05209 1-300): T1 sequence (Q05209 1-300)
# Description: PTP PEST Catalytic Domain construct (Amino Acid:1-300) with 6 His tag at N-terminal were expressed in insect cell Sf9-VECL-01 Cell line, using Bac-to-Bac Baculovirus expression system. Cells were infected with baculovirus at 27° C. and harvested after 65 hours of infection. Post harvesting cell suspension were centrifuged and pellet was stored at -80° C. To purify the protein, pellet was thawed and then dissolved in lysis buffer containing 50 mM Tris-HCl, 500 mM NaCl, 5% Glycerol, pH-7.5, and protease inhibitor cocktail tablet, EDTA free from Roche. Cell were lysed by TS-series cell disrupter (Constant System Ltd.) then lysate was centrifuged at 20000 RPM for 30 minutes at 4° C. using JA25.5 rotor in an Avanti J-26-XPI Centrifuge. […] After SEC purity of the protein was analyzed by SDS page and quantification was carried out by using NanoDrop Spectrophotometer. […] The absorbance of the reaction was measured at 650 nm by using Tecan Infinite […] instrument. The absorbance value was converted to amount of phosphate produced in reaction based on the standard curve generated from known phosphate concentration. Data generated in the reaction was fitted using nonlinear regression mode and IC50 value were calculated based on the equation function “Log(inhibitor) vs response-variable slope” from Graph Pad Prism 5.0.
# I/R mice = experiment: Serum troponin I measurement in I/R mice; type: in vivo, mouse; details: 2 mg/kg IP
# Description: (§1) We anesthetized the mouse with 5% isoflurane mixed with room air until loss of sensation of pain and then maintained the mouse in anesthesia status with 2% isoflurane mixed with room air through the whole procedure. The mouse's body temperature was maintained at 37° C. by a heating pad. After the mouse was intubated, we provided artificial ventilation to the mouse with a small animal ventilator. Then the chest cavity was opened at the second intercostal space and homemade chest retractors were utilized to widen the incision. We pulled the pericardium apart carefully and exposed the left anterior descending artery (LAD). A 7-0 silk was put underneath the LAD at the position of the tip of the left auricle, a 6 mm length of PE-10 tube was put on the surface of the LAD, and then a double knot was made to occlude the blood flow of LAD. The success of ligation was confirmed by paling the anterior wall of the LV. For the reperfusion group, the LAD knot would be untied for the purpose of reperfusion after 1 hour of ischemia. For the sham operation group, all procedures were the same except for the knot that occluded the LAD flow. After the successful procedure, we left the silk in situ, closed the chest cavity and weaned the animal from the ventilator.
# Before the mouse was sacrificed, blood was drawn from the facial vein. The blood was put in the room temperature for 30 minutes and then centrifuged at 4° C. for 15 minutes at 5000 rpm. After centrifuging, the serum is collected for troponin I measurement with troponin I ELISA kit (KT-469, Kamiya Biomedical Company) according to the manufacture's protocol.
# [2] = tested on: myocardial protein tyrosine phosphorylation; experiment: Immunoblotting of heart extracts of I/R mice (anti-pTyr, p-Paxillin, p-p130cas, p-ErbB-2); type: in vivo, mouse; details: 2 mg/kg IP ten min before reperfusion; four hours post-I/R
# Description: as §1
# Hearts from mice received different treatment were gently homogenized in ice-cold RIPA buffer [250 mM Tris-HCl pH 7.4, 750 mM NaCl, detergent mix (5% NP-40, 2.5% Na-deoxycholate and 0.5% SDS), and 1× protease inhibitor cocktail (EDTA free)] containing phosphatase inhibitors (2 mM Na3VO4, 10 mM NaF, and 10 mM Na2P2O7). The homogenates were centrifuged at 16,100×g at 4° C. for 10 minutes to remove the debris. Protein concentrations were determined by Bradford protein assay. Equal amounts of protein extract from those mice were separated by SDS-PAGE on an 8% or 10% polyacrylamide gel and then transferred to PVDF membrane. Membranes were incubated with indicated primary antibody at 4° C. overnight followed by incubated with secondary antibodies for 1 hour at room temperature. The protein abundance was detected by the signal intensity of each specific band.
smiles,measurement,setting,value
"CC(=O)OC[C@H]1O[C@@H]([S-])[C@H](OC(C)=O)[C@@H](OC(C)=O)[C@@H]1OC(C)=O.CCP(CC)CC.[Au+] [Auranofin, auranofin]",Unfolding events of PTP-PEST (DSF and DSC),PTP-PEST,two unfolding events
same,IC50,"[1]; read-out: IC50 of the auranofin to the PTP-PEST, as restated in the summary",38.7 µM
same,IC50,"[1]; synthetic phospho-Paxillin peptide as substrate, 25 nM protein, 50 μM peptide, 30° C., 30 min, read-out: IC50 on enzymatic activity of purified PTP-PEST",38.7 µM
same,Serum troponin I level,I/R mice; 4 hours post-I/R,reduced
same,Serum troponin I level,I/R mice; one day after reperfusion,lower
same,Decreased protein tyrosine phosphorylation in the I/R heart (anti-pTyr),[2],reversed
same,I/R-induced decrease of pTyr signaling in Paxillin and p130Cas,[2],restored
same,I/R-suppressed phosphorylation of Tyr1248 in ErbB-2,[2],restored
